{
  "source": "patent US20050113366A1",
  "about": "(priority 2000, published 2005)",
  "key": {"[1]": {"system": "slow wave sleep", "experiment": "EEG study of the duration of slow wave sleep in rats after i.p. injection", "type": "in vivo, Male Wistar rats", "conditions": "for Duration of slow wave sleep: 3 h EEG recording, mean ± SEM; for Increase of the duration of slow wave sleep: versus NaCl", "from_the_text": "Male Wistar rats, weighing 200 g at the beginning of the experiment, coming from the Centre d'Elevage Janvier (Route des Chenes-Secs, Le Genest St-Isle, 53940 France) were used for this study.\nAfter eight days of adaptation to the breeding conditions at the Animalerie Centrale de la Faculte de Medecine (11, rue Humann 67084 Strasbourg), these animals were placed in individual cages (Makrolon type cages 3H, 425×266×150) in a standard (7 a.m./7 p.m.) day/night rhythm, with water and food (UAR ref. A04) continually available to them. The animals were then transferred to an experimentation facility on supports capable of receiving 24 cages.\nThe surgical procedure is the following: after one month of becoming accustomed to the (10 a.m./10 p.m.) day/night cycle, the rats are weighed and then anesthetized with ketamine (Imalgene 500 Merial) at a dose of 150 mg/kg i.p. After having placed the animal in a stereotactic frame (Narishige), a rostrocaudal incision is made using a sterilized scalpel (No. 3 blade, Swann-Morton England).\nThe parietal bone sutures, Lambda and Bregma, are exposed serve as stereotactic reference (point 0). After having perforated the cranial casing using a dental drill without infringing on the meninges (Minitor Narishige), two stainless steel screws 500 μm in diameter (Magister, 4 rue du Lac 25130 Villers Le Lac) are implanted at the following coordinates: Bregma AP: ±4 mm and ML: ±3 mm.\nTwo copper wires are soldered with tin to the screws, on one hand, and to the female connector, on the other hand (VP Electronic, Square de la Poteme, 91302 Massy Cedex). The assembly which is realized is then covered with a polymerizing resin (Paladur, Kulzer, Germany).\nThe implanted rats are then placed in their respective cages. A post-operative period greater than 48 h is complied with before any recording.\nAll the EEG recordings are made during the first hours of the dark [sic; light] phase (that is, between 10 a.m. and 1 p.m.), which represents the period of awakening and intense activity of the animals.\nThe rats are placed in a cage made of Plexiglas (170×170×300), and after a 30 min period of becoming accustomed to their new environment, they are recorded continuously for a duration of 3 h after i.p. injection (2 mL/kg) of 0.9% NaCl or the ligand to be studied. The EEG graph is made using an 8-track recorder (Alvar Electronic, 6 rue du Progres, 93511-Montreuil) with a running speed of 0.5 cm/s.\nThe total durations of slow wave sleep for each animal are evaluated in 20 min sections for the total duration of the 3 h recording (1 cm=2 seconds).\nThe statistical comparison is made using an analysis of variance test (Anova) followed by a multiple comparison test. […]\nThe numbers in parentheses correspond to the percentages of slow wave sleep with respect to the total duration of sleep."}, "[2]": {"biological_target": "GHB receptors (Rattus norvegicus, UniProt P11275)", "sequence (P11275 whole entry)": "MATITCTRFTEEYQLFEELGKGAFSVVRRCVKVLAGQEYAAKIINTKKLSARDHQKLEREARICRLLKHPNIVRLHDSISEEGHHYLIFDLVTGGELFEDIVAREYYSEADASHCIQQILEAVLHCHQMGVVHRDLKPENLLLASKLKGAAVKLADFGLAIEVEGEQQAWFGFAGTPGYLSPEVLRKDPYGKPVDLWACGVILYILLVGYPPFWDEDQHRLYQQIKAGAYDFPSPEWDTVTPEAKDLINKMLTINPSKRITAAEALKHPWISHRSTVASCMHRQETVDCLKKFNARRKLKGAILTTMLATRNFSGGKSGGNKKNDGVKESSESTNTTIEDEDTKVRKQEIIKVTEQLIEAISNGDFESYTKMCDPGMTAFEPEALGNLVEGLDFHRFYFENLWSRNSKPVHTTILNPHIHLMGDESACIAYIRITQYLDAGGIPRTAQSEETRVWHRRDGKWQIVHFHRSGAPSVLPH", "experiment": "Displacement of 3H-GHB binding on rat brain membranes", "set-up": "species or system Wistar rats"}, "[3]": {"conditions": "in cats; cited from earlier work"}, "[4]": {"conditions": "read-out: IC50 (concentration displacing 50% of the reversible binding of 3H-GHB), rat brain membranes, potassium phosphate buffer pH 6.0, 30 min in ice"}},
  "note": "Structures can show the parent of a compound that is named as a salt. Where two headings read alike, the source gives them in different places.",
  "data": [
    {"compound": "O=C(O)CCC(O)c1ccc(Cl)c(Cl)c1", "note": "(centres unmarked) [Compound 2, Sodium salt of 4-(3,4 dichlorophenyl)-4-hydroxybutanoic acid]", "values": [
      {"measurement": "Percentage of slow wave sleep with respect to the total duration of sleep (in parentheses)", "setting": "[1]; 0.28 mmol/kg i.p.", "result": 23, "unit": "%"},
      {"measurement": "Duration of slow wave sleep", "setting": "[1]; 0.28 mmol/kg i.p.", "result": "53 ± 7", "unit": "min"},
      {"measurement": "Increase of the duration of slow wave sleep", "setting": "[1]; 0.28 mmol/kg i.p.", "result": 42, "unit": "min"}
    ]},
    {"compound": "O=C([O-])CCC(O)c1cc2c3c(cccc3c1)CC2.[Na+]", "note": "(centres unmarked) [Compound 24, Sodium salt of 4-(1,2-dihydroacenaphthylen-4-yl)-4-hydroxybutanoic acid]", "values": [
      {"measurement": "Percentage of slow wave sleep with respect to the total duration of sleep (in parentheses)", "setting": "[1]; 0.15 mmol/kg i.p.", "result": 23, "unit": "%"},
      {"measurement": "Duration of slow wave sleep", "setting": "[1]; 0.15 mmol/kg i.p.", "result": "53 ± 7", "unit": "min"},
      {"measurement": "Increase of the duration of slow wave sleep", "setting": "[1]; 0.15 mmol/kg i.p.", "result": 42, "unit": "min"},
      {"measurement": "Percentage of slow wave sleep with respect to the total duration of sleep (in parentheses)", "setting": "[1]; 0.28 mmol/kg i.p.", "result": 28, "unit": "%"},
      {"measurement": "Duration of slow wave sleep", "setting": "[1]; 0.28 mmol/kg i.p.", "result": "61 ± 8", "unit": "min"},
      {"measurement": "Increase of the duration of slow wave sleep", "setting": "[1]; 0.28 mmol/kg i.p.", "result": 50, "unit": "min"},
      {"measurement": "IC50", "setting": "[2]; affinity for the GHB receptor, repeated in Table 4, read-out: IC50", "result": 80, "unit": "nM"},
      {"measurement": "IC50", "setting": "[2]; [4]", "result": 80, "unit": "nM"}
    ]},
    {"compound": "O=C(O)CCC(O)c1ccc2c(c1)-c1ccccc1C2", "note": "(centres unmarked) [Compound 32, Sodium salt of 4-(9H-fluoren-3-yl)hydroxybutanoic acid]", "values": [
      {"measurement": "IC50", "setting": "[2]; [4]", "result": 300, "unit": "nM"}
    ]},
    {"compound": "CC1(C)Cc2cc(C(O)CCC(=O)O)ccc2NC1=O", "note": "(centres unmarked) [Compound 40, Sodium salt of 4-(3,3-dimethyl-2-oxo-1,2,3,4-tetrahydroquinolin-6-yl)-4-hydroxybutanoic acid]", "values": [
      {"measurement": "IC50", "setting": "[2]; [4]", "result": 1100, "unit": "nM"}
    ]},
    {"compound": "O=C(O)CCCO", "note": "[GHB, γ-hydroxybutyrate]", "values": [
      {"measurement": "half-life", "setting": "[3]", "result": "approximately one"}
    ]},
    {"compound": "Sodium salt of 4-hydroxy-4-(phenoxathiin-2 or 3-yl) butanoic acid isomer B [Compound 29]", "values": [
      {"measurement": "IC50", "setting": "[2]; [4]", "result": 900, "unit": "nM"}
    ]},
    {"compound": "Sodium salt of 4-hydroxy-4-(phenoxathiin-2 or 3-yl)butanoic acid isomer A [Compound 28]", "values": [
      {"measurement": "IC50", "setting": "[2]; [4]", "result": 100, "unit": "nM"}
    ]},
    {"compound": "Sodium salts of 4-hydroxy-4-(4-oxo-4,5-dihydro-3H-pyridazo(4,5-b)indol-8 and 6-yl)butanoic acids 8/6 isomer mixture [Compound 33]", "values": [
      {"measurement": "IC50", "setting": "[2]; [4]", "result": 200, "unit": "nM"}
    ]}
  ]
}
